Data reported in paper PMC11249646, “Small-Molecule Disruptors of the Interaction between Calcium- and Integrin-Binding Protein 1 and Integrin αIIbβ3 as Novel Antiplatelet Agents” (ACS Pharmacology & Translational Science, 2024).
pIC50: −log10 of the molar value.

The molecules below were run against T1, CIB1 and αIIb interaction (GST-CIB1 : F-αIIb peptide) (Homo sapiens, UniProt Q99828) (assay: FP assay, 384-well format (screen)). Conditions: F-αIIb peptide.
T1 construct: made in house; host or cells: BL-21 plus RIL cells (E. coli)
T1 sequence (Q99828 1-191): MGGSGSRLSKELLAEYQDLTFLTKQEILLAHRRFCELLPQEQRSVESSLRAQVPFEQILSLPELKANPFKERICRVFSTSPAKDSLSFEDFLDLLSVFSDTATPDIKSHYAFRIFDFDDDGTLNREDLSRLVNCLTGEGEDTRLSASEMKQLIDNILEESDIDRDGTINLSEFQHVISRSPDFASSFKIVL
Assay type: binding
Set-up: 384-well SCREEN Efficacy (%): concentration or dose not given beside the values

Structure (SMILES)	384-well SCREEN Efficacy (%)
CN1CCCN=C1/C=C/c1cccs1.O=C(O)c1cc2ccccc2c(Cc2c(O)c(C(=O)O)cc3ccccc23)c1O [NCGC00094552-04]	24
CCCCCc1c2c(cc(O)c1C(=O)O)OC(=O)c1c(cc(OC)cc1C(=O)CCCC)O2.O=C(O)C(F)(F)F [NCGC00095570-05]	38
O=C(O)C(F)(F)F.O=S(=O)(Nc1nc2n(n1)C(c1ccccc1)C=C(c1ccc(Cl)cc1)N2)c1ccccc1 (centres unmarked) [NCGC00100537-04]	85

Same assay, conditions: F-αIIb peptide; YES/NO

Structure (SMILES)	384-well SCREEN Confirm?
CCCCCc1c2c(cc(O)c1C(=O)O)OC(=O)c1c(cc(OC)cc1C(=O)CCCC)O2.O=C(O)C(F)(F)F [NCGC00095570-05]	YES
O=C(O)C(F)(F)F.O=S(=O)(Nc1nc2n(n1)C(c1ccccc1)C=C(c1ccc(Cl)cc1)N2)c1ccccc1 (centres unmarked) [NCGC00100537-04]	YES

Same assay, conditions: F-αIIb peptide; read-out: 384-well SCREEN IC50

Structure (SMILES)	pIC50
CCCCCc1c2c(cc(O)c1C(=O)O)OC(=O)c1c(cc(OC)cc1C(=O)CCCC)O2.O=C(O)C(F)(F)F [NCGC00095570-05]	5.05
O=C(O)C(F)(F)F.O=S(=O)(Nc1nc2n(n1)C(c1ccccc1)C=C(c1ccc(Cl)cc1)N2)c1ccccc1 (centres unmarked) [NCGC00100537-04]	4.30

The molecules below were run against T2, GST-CIB1 : F-scrambled peptide (Homo sapiens, UniProt Q99828) (assay: FP scrambled-peptide counter screen, 384-well format). Conditions: F-scrambled peptide.
T2 construct: made in house; host or cells: BL-21 plus RIL cells (E. coli)
T2 sequence (Q99828 1-191): T1 sequence (Q99828 1-191)
Assay type: binding

Structure (SMILES)	384-well COUNTERSCREEN Efficacy (%)
CN1CCCN=C1/C=C/c1cccs1.O=C(O)c1cc2ccccc2c(Cc2c(O)c(C(=O)O)cc3ccccc23)c1O [NCGC00094552-04]	40
CCCCCc1c2c(cc(O)c1C(=O)O)OC(=O)c1c(cc(OC)cc1C(=O)CCCC)O2.O=C(O)C(F)(F)F [NCGC00095570-05]	58
O=C(O)C(F)(F)F.O=S(=O)(Nc1nc2n(n1)C(c1ccccc1)C=C(c1ccc(Cl)cc1)N2)c1ccccc1 (centres unmarked) [NCGC00100537-04]	80

Same assay, conditions: F-scrambled peptide; *: Curve in opposite direction

Structure (SMILES)	384-well COUNTERSCREEN Confirm?
CCCCCc1c2c(cc(O)c1C(=O)O)OC(=O)c1c(cc(OC)cc1C(=O)CCCC)O2.O=C(O)C(F)(F)F [NCGC00095570-05]	YES

Same assay, conditions: F-scrambled peptide; read-out: 384-well COUNTERSCREEN IC50

Structure (SMILES)	pIC50
CCCCCc1c2c(cc(O)c1C(=O)O)OC(=O)c1c(cc(OC)cc1C(=O)CCCC)O2.O=C(O)C(F)(F)F [NCGC00095570-05]	4.30
O=C(O)C(F)(F)F.O=S(=O)(Nc1nc2n(n1)C(c1ccccc1)C=C(c1ccc(Cl)cc1)N2)c1ccccc1 (centres unmarked) [NCGC00100537-04]	4.30

What follows are molecules tested against T3, CIB1 and αIIb interaction (CIB1-GST : F-αIIb peptide) (Homo sapiens, UniProt Q99828) (assay: FP assay, 1536-well qHTS format (primary and confirmatory screen)). Conditions: confirmatory screen, YES/NO call.
T3 construct: made in house; host or cells: BL-21 plus RIL cells (E. coli)
T3 sequence (Q99828 1-191): T1 sequence (Q99828 1-191)
Assay type: binding

Structure (SMILES)	CONFIRMATORY SCREEN Confirm?
CN1CCCN=C1/C=C/c1cccs1.O=C(O)c1cc2ccccc2c(Cc2c(O)c(C(=O)O)cc3ccccc23)c1O [NCGC00094552-04]	YES
CCCCCc1c2c(cc(O)c1C(=O)O)OC(=O)c1c(cc(OC)cc1C(=O)CCCC)O2.O=C(O)C(F)(F)F [NCGC00095570-05]	YES
O=C(O)C(F)(F)F.O=S(=O)(Nc1nc2n(n1)C(c1ccccc1)C=C(c1ccc(Cl)cc1)N2)c1ccccc1 (centres unmarked) [NCGC00100537-04]	YES

Same assay, conditions: confirmatory screen, qHTS curve class; negative sign = inhibitory curve

Structure (SMILES)	CONFIRMATORY SCREEN Curve Class
CN1CCCN=C1/C=C/c1cccs1.O=C(O)c1cc2ccccc2c(Cc2c(O)c(C(=O)O)cc3ccccc23)c1O [NCGC00094552-04]	-2.4
CCCCCc1c2c(cc(O)c1C(=O)O)OC(=O)c1c(cc(OC)cc1C(=O)CCCC)O2.O=C(O)C(F)(F)F [NCGC00095570-05]	-1.2
O=C(O)C(F)(F)F.O=S(=O)(Nc1nc2n(n1)C(c1ccccc1)C=C(c1ccc(Cl)cc1)N2)c1ccccc1 (centres unmarked) [NCGC00100537-04]	-2.2

Same assay, conditions: confirmatory screen; negative = inhibition

Structure (SMILES)	CONFIRMATORY SCREEN Efficacy (%)
CN1CCCN=C1/C=C/c1cccs1.O=C(O)c1cc2ccccc2c(Cc2c(O)c(C(=O)O)cc3ccccc23)c1O [NCGC00094552-04]	-39
CCCCCc1c2c(cc(O)c1C(=O)O)OC(=O)c1c(cc(OC)cc1C(=O)CCCC)O2.O=C(O)C(F)(F)F [NCGC00095570-05]	-60
O=C(O)C(F)(F)F.O=S(=O)(Nc1nc2n(n1)C(c1ccccc1)C=C(c1ccc(Cl)cc1)N2)c1ccccc1 (centres unmarked) [NCGC00100537-04]	-81

Same assay, conditions: confirmatory screen; read-out: CONFIRMATORY SCREEN IC50

Structure (SMILES)	pIC50
CCCCCc1c2c(cc(O)c1C(=O)O)OC(=O)c1c(cc(OC)cc1C(=O)CCCC)O2.O=C(O)C(F)(F)F [NCGC00095570-05]	4.95
O=C(O)C(F)(F)F.O=S(=O)(Nc1nc2n(n1)C(c1ccccc1)C=C(c1ccc(Cl)cc1)N2)c1ccccc1 (centres unmarked) [NCGC00100537-04]	4.40

Same assay, conditions: qHTS FP screen hits, Table S2; negative = inhibition

Structure (SMILES)	Efficacy (%)
O=C(O)C(F)(F)F.O=S(=O)(Nc1nc2n(n1)C(c1ccccc1)C=C(c1ccc(Cl)cc1)N2)c1ccccc1 (centres unmarked) [NCGC00100537-04]	-125

Same assay, conditions: qHTS FP screen hits, Table S2; one class per curve where COUNT > 1; negative sign = inhibitory curve

Structure (SMILES)	Curve Class
O=C(O)C(F)(F)F.O=S(=O)(Nc1nc2n(n1)C(c1ccccc1)C=C(c1ccc(Cl)cc1)N2)c1ccccc1 (centres unmarked) [NCGC00100537-04]	-1.1

Same assay, conditions: qHTS FP screen hits, Table S2; read-out: IC50

Structure (SMILES)	pIC50
O=C(O)C(F)(F)F.O=S(=O)(Nc1nc2n(n1)C(c1ccccc1)C=C(c1ccc(Cl)cc1)N2)c1ccccc1 (centres unmarked) [NCGC00100537-04]	4.65

Same assay, conditions: qHTS primary screen hits, Table S2; negative = inhibition

Structure (SMILES)	Efficacy (%)
CN1CCCN=C1/C=C/c1cccs1.O=C(O)c1cc2ccccc2c(Cc2c(O)c(C(=O)O)cc3ccccc23)c1O [NCGC00094552-04]	-25
CCCCCc1c2c(cc(O)c1C(=O)O)OC(=O)c1c(cc(OC)cc1C(=O)CCCC)O2.O=C(O)C(F)(F)F [NCGC00095570-05]	-33

Same assay, conditions: qHTS primary screen hits, Table S2; negative sign = inhibitory curve; several classes where COUNT > 1

Structure (SMILES)	Curve Class
CN1CCCN=C1/C=C/c1cccs1.O=C(O)c1cc2ccccc2c(Cc2c(O)c(C(=O)O)cc3ccccc23)c1O [NCGC00094552-04]	-2.4
CCCCCc1c2c(cc(O)c1C(=O)O)OC(=O)c1c(cc(OC)cc1C(=O)CCCC)O2.O=C(O)C(F)(F)F [NCGC00095570-05]	-1.4

Same assay, conditions: qHTS primary screen hits, Table S2; read-out: IC50

Structure (SMILES)	pIC50
CCCCCc1c2c(cc(O)c1C(=O)O)OC(=O)c1c(cc(OC)cc1C(=O)CCCC)O2.O=C(O)C(F)(F)F [NCGC00095570-05]	4.90

The molecules below were run against T2, GST-CIB1 : F-scrambled peptide (assay: FP scrambled-peptide counter screen, 1536-well format). Conditions: scrambled-peptide counterscreen.
Assay type: binding

Structure (SMILES)	COUNTERSCREEN Efficacy (%)
CN1CCCN=C1/C=C/c1cccs1.O=C(O)c1cc2ccccc2c(Cc2c(O)c(C(=O)O)cc3ccccc23)c1O [NCGC00094552-04]	0
CCCCCc1c2c(cc(O)c1C(=O)O)OC(=O)c1c(cc(OC)cc1C(=O)CCCC)O2.O=C(O)C(F)(F)F [NCGC00095570-05]	-14
O=C(O)C(F)(F)F.O=S(=O)(Nc1nc2n(n1)C(c1ccccc1)C=C(c1ccc(Cl)cc1)N2)c1ccccc1 (centres unmarked) [NCGC00100537-04]	10

Same assay, conditions: scrambled-peptide counterscreen, YES/NO call

Structure (SMILES)	COUNTERSCREEN Confirm?
CN1CCCN=C1/C=C/c1cccs1.O=C(O)c1cc2ccccc2c(Cc2c(O)c(C(=O)O)cc3ccccc23)c1O [NCGC00094552-04]	YES
CCCCCc1c2c(cc(O)c1C(=O)O)OC(=O)c1c(cc(OC)cc1C(=O)CCCC)O2.O=C(O)C(F)(F)F [NCGC00095570-05]	YES
O=C(O)C(F)(F)F.O=S(=O)(Nc1nc2n(n1)C(c1ccccc1)C=C(c1ccc(Cl)cc1)N2)c1ccccc1 (centres unmarked) [NCGC00100537-04]	YES

Same assay, conditions: scrambled-peptide counterscreen, qHTS curve class

Structure (SMILES)	COUNTERSCREEN Curve Class
CN1CCCN=C1/C=C/c1cccs1.O=C(O)c1cc2ccccc2c(Cc2c(O)c(C(=O)O)cc3ccccc23)c1O [NCGC00094552-04]	4
CCCCCc1c2c(cc(O)c1C(=O)O)OC(=O)c1c(cc(OC)cc1C(=O)CCCC)O2.O=C(O)C(F)(F)F [NCGC00095570-05]	4
O=C(O)C(F)(F)F.O=S(=O)(Nc1nc2n(n1)C(c1ccccc1)C=C(c1ccc(Cl)cc1)N2)c1ccccc1 (centres unmarked) [NCGC00100537-04]	4
